Laboratory results from patent publication US9517988B2 (Sichuan Haisco Pharmaceutical Co., Ltd., priority 2013, dated 2016).

Assays:
[1] = Pharmacokinetic analysis with prodrugs in rats; assay type: in vivo, SD rats; conditions: male, Sprague-Dawley, rat, plasma
Method: 3 male SD rats, each weighing 180 to 240 g, were fasted overnight with water access. After a single intravenous administration of a prodrug at 10 mg/kg to rats, the plasma concentrations of the prodrug and the active form were each measured by LC-MS/MS, and the pharmacokinetic parameters were analyzed.

[2] = Righting reflex experiment on mice with prodrugs; assay type: in vivo; conditions: both sexes, ICR, mouse, in vivo, mice; for MTD: intravenous, prodrugs; for LD50: intravenous injection, prodrugs in physiological saline
Method: (§1) After adapting to the laboratory environment, the SPF-grade ICR mice were fasted for 12 hours.

[3] = tested on: ICR mice; experiment: Righting reflex experiment on mice with prodrugs; assay type: in vivo; conditions: for ED50: Mus musculus, prodrugs formulated with physiological saline, read-out: ED50; for ED50 / Anesthesia induction time / Anesthesia maintenance time: intravenous injection; for SI: safety index, LD5/ED95, mice; for TI: therapeutic index, LD50/ED50, mice
Method: as §1

[4] = tested on: ICR mice; experiment: Righting reflex experiment on mice; conditions: for ED50: Mus musculus, iv; for Anesthesia induction time / Anesthesia maintenance time / HD7: mice; for Anesthesia induction time / Anesthesia maintenance time: intravenous injection; for Anesthesia induction time: end of administration until loss of righting reflex; for Anesthesia maintenance time: loss until recovery of righting reflex; for HD7: dose required to cause a 7-min anesthesia; for TI: therapeutic index, LD50/ED50, mice
Method: (§2) LD5 (5% lethal dose): dose required to cause 5% of mice to die in a test.
(§3) If a normal animal was able to immediately turn its body to normal upright position after being pushed over or made lying on its back, such a reflex was determined as the righting reflex. Otherwise, loss of the righting reflex and the time of loss were recorded, and a reflex recovery time was recorded when the animal restored the righting reflex. The period from finishing of drug administration until loss of the righting reflex was recorded as the anesthesia induction time, and the period from loss of the righting reflex until recovery of the righting reflex was recorded as the anesthesia maintenance time.
(§4) TI (therapeutic index, i.e. LD50/ED50), SI (safety index, i.e. LD5/ED95).
(§5) MTD (maximum tolerated dose): the maximum dose able to cause 100% to loss the righting index without death.
(§6) Indicators such as median effective dose (ED50), median lethal dose (LD50), therapeutic index (TI, i.e. LD50/ED50), safety index (SI, i.e. LD5/ED95), anesthesia induction time, anesthesia maintenance time, and maximum tolerated dose (MTD) were used to evaluate the effect and safety of anesthesia. […] After adapting to the laboratory environment, laboratory animals were fasted for 12 hours. On the next day, administration was carried out at 10 mg/kg body weight. Upon intravenous injection, the time of loss of the righting reflex was recorded. The period from finishing of drug administration until loss of the righting reflex was recorded as the anesthesia induction time, and the period from loss of the righting reflex until recovery of the righting reflex was recorded as the anesthesia maintenance time. The anesthesia induction time and the anesthesia maintenance time were used to indicate how strong an anesthetic effect was. Meanwhile, the dose required to cause a 7-min anesthesia (HD7) was measured and used to evaluate relative efficacy.

[5] = Pharmacokinetic experiment on rats; assay type: in vivo, SD rats; conditions: male, Sprague-Dawley, rat, plasma; Intravenous Injection into Rats (1 mg/kg)
Method: 3 male SD rats, each weighing 180 to 240 g, were fasted overnight with water access. A 1 mL/kg solution of the compound was formulated with 10% DMA, 20% solutol HS-15 (30%, w/v) and 70% physiological saline. Blood was sampled before administration and 2 min, 4 min, 8 min, 12 min, 15 min, 30 min, 1 h, 1.5 h and 2 h after administration. Blood samples were centrifuged at 5500 rpm for 10 min, and plasma was collected and stored at −40° C. 10 μl rat plasma from each time point was added to a 200 μl acetonitrile solution containing an internal standard and mixed, followed by 1-min vortexing and 18-min centrifugation at 3700 rpm. Then 70 μl supernatant was mixed with 70 μl water, and 10 μl of the mixture was analyzed by LC-MS/MS. Major pharmacokinetic parameters were subjected to a non-compartment analysis with the software WinNonlin 6.3.

[6] = Efficacy experiment on rats with prodrugs; assay type: in vivo; conditions: both sexes, Sprague-Dawley, rat, in vivo, intravenous, SD rats; for LD50: tail vein, non-linear fitting
Method: (§7) This experiment selected SD rats, each weighing 180 to 200 g. The rats were randomized, with 10 animals per group, half male and half female. […] The time of administration, time of loss of the righting reflex, time of recovery of the righting reflex, and time of walking were recorded. Adverse effects shown by the rats after administration were also recorded.
(§8) Time of loss of the righting reflex: the righting reflex is lost; a rat made lying on its back can maintain the lying for a period of 60 s;
(§9) Time of recovery of the righting reflex: the righting reflex ability is restored; a rat made lying on its back rights in less than 2 s;
(§10) Time of walking: spontaneous forwarding moving occurs, and muscle tension of the limbs recovers.
(§11) Using GraphPad Prism 5, ED50 and LD50 values were calculated from a non-linear fitting of number of anesthetic or dead animals resulting from various doses.

[7] = tested on: SD rats; experiment: Efficacy experiment on rats with prodrugs; assay type: in vivo; conditions: for ED50: Rattus norvegicus, non-linear fitting; for ED50 / Anesthesia induction time / Anesthesia maintenance time: SD rats, tail vein; for TI: therapeutic index, LD50/ED50, rats
Method: as §7, §8, §9, §10, §11

[8] = tested on: Beagle dogs; experiment: Haemodynamic effects in Beagle dogs; assay type: in vivo; conditions: for Dose required to produce the same anesthetic effect: Beagle dogs, intravenous emulsion for injection
Method: Data of various indicators such as electrocardiogram, blood pressure and body temperature of the animals were continuously collected from about 3.5 hours before administration until 6 hours after administration.

[9] = tested on: GABAA receptors; conditions: CHO/GABAA; for EC50: enhancement of muscimol-induced GABAA receptor current, whole-cell patch-clamp
Method: Various concentrations of test compounds and muscimol were added together to CHO/GABAA, and the current mediated by GABAA receptors was measured. Two measurements were performed for each concentration to obtain an average response current. The enhancement of the current mediated by GABAA receptors was calculated by the following equation: Enhancement (%)=100*(Test Compound−Control)/Control
The Control group is the peak current amplitude induced by muscimol, and the Test Compound group is the peak current amplitude co-induced by the test compounds and muscimol. The enhancement (%) was calculated for each concentration, and EC50 was calculated by normalization.

[10] = injection; cited from earlier work
[11] = Righting reflex experiment on mice; conditions: both, ICR, mouse, in vivo
Method: as §2, §3, §4, §5, §6

[12] = Intravenous Injection into Rats (10 mg/kg), analyte: prodrug

Structure (SMILES): CC(C)c1cccc([C@H](C)C2CC2)c1OP(=O)(O)O [Compound 46, [[2-[(1R)-1-cyclopropylethyl]-6-isopropyl-phenoxy]-sodiooxy-phosphoryl]oxysodium]
- AUC(0-t) [1, 12]: 22400 ng·h/mL
- clearance [1, 12]: 6.1 mL/min/kg
- half-life [1, 12]: 54 min
- MTD [2]: 200 mg/kg
- LD50 [2]: 225 mg/kg
- ED50 ([3]; mice): 72.6 mg/kg
- Anesthesia induction time ([3]; mice, prodrugs): 167.0 s
- Anesthesia maintenance time ([3]; mice, prodrugs): 2204.6 s
- SI ([3]; prodrugs): 2.4
- TI ([3]; prodrugs): 3.1

Structure (SMILES): CC(C)c1cccc(C(C)C)c1O [Propofol, reference compound]
- ED50 [4]: 11.7 mg/kg
- Anesthesia induction time [4]: <15.0 s
- Anesthesia maintenance time [4]: 652.5 s
- HD7 [4]: 14.0 mg/kg
- TI [4]: 2.7
- AUC(0-t) [5]: 81.9 ng·h/mL
- clearance [5]: 204 mL/min/kg
- half-life [5]: 42 min
- AUC(0-t) ([1]; iv, 10 mg/kg): 81.9 ng·h/mL
- clearance ([1]; iv, 10 mg/kg): 204 mL/min/kg
- half-life ([1]; iv, 10 mg/kg): 42 min
- ED50 ([3]; mice): 11.7 mg/kg
- Anesthesia induction time ([3]; mice, prodrugs): <15.0 s
- Anesthesia maintenance time ([3]; mice, prodrugs): 652.5 s
- MTD ([3]; mice, prodrugs): 20.0 mg/kg
- TI ([3]; prodrugs): 2.7
- MTD [6]: 12.5 mg/kg
- LD50 [6]: 19.1 mg/kg
- ED50 [7]: 5.7 mg/kg
- Anesthesia induction time [7]: 0.0 s
- Anesthesia maintenance time [7]: 652.0 s
- TI [7]: 3.4
- Dose required to produce the same anesthetic effect [8]: 10 mg/kg
- Effect on the ion channels of GABAA receptors ([9]; patch clamp): activating effect
- EC50 [9]: 5.3 µM
- Patients on injections feeling certain pain or discomfort [10]: approximately 70%

Structure (SMILES): CC(C)c1cccc([C@H](C)C2CC2)c1OCOC(=O)[C@H](Cc1ccccc1)NC(=O)OC(C)(C)C [Compound 61, [2-[(1R)-1-cyclopropylethyl]-6-isopropyl-phenoxy]methyl(2S)-2-(tertbutoxycarbonylamino)-3-phenyl-propanoate]
- MTD [2]: 40 mg/kg
- LD50 [2]: 87.4 mg/kg
- ED50 ([3]; mice): 6.1 mg/kg
- Anesthesia induction time ([3]; mice, prodrugs): 17.5 s
- Anesthesia maintenance time ([3]; mice, prodrugs): 1109.2 s
- ED50 and efficacy compared with propofol ([3]; mice, prodrugs): smaller ED50 value and higher efficacy than propofol
- SI ([3]; prodrugs): 3.7
- TI ([3]; prodrugs): 14.4
- MTD [6]: 40 mg/kg
- LD50 [6]: 60.8 mg/kg
- ED50 [7]: 6.5 mg/kg
- Anesthesia induction time [7]: 0.0 s
- Anesthesia maintenance time [7]: 1474.9 s
- ED50 and efficacy compared with propofol ([7]; rats, prodrugs): smaller ED50 and higher efficacy than propofol
- SI ([7]; safety index, LD5/ED95, rats): 6.3
- TI [7]: 9.4

Structure (SMILES): CC(C)c1cccc([C@H](C)C2CC2)c1O [Compound 16, 2-[(1R)-1-cyclopropylethyl]-6-isopropyl-phenol]
- MTD ([11]; intravenous): 6 mg/kg
- LD50 ([11]; iv): 9.9 mg/kg
- ED50 [4]: 1.5 mg/kg
- Anesthesia induction time [4]: <15.0 s
- Anesthesia maintenance time [4]: 631.9 s
- HD7 [4]: 3.5 mg/kg
- SI ([4]; safety index, LD5/ED95, mice): 4.1
- TI [4]: 6.7
- AUC(0-t) [5]: 168 ng·h/mL
- clearance [5]: 105 mL/min/kg
- half-life [5]: 30 min
- Dose required to produce the same anesthetic effect [8]: 2 mg/kg
- Effect on the heart rate and blood pressure ([8]; conscious Beagle dogs, Compound 16 2 mg/kg vs propofol 10 mg/kg): smaller than that of propofol
- Activity compared with propofol ([9]; patch clamp): lower ED50
- Effect on the ion channels of GABAA receptors ([9]; patch clamp): activating effect
- EC50 [9]: 1.1 µM

Structure (SMILES): CC(C)c1cccc([C@H](C)C2CC2)c1OCOP(=O)([O-])[O-].[Na+].[Na+] [Compound 52]
- AUC(0-t) [1, 12]: 15900 ng·h/mL
- clearance [1, 12]: 10.5 mL/min/kg
- half-life [1, 12]: 24 min
- LD50 [2]: 86.2 mg/kg
- ED50 ([3]; mice): 20.4 mg/kg
- Anesthesia induction time ([3]; mice, prodrugs): 73.0 s
- Anesthesia maintenance time ([3]; mice, prodrugs): 1830.2 s
- MTD ([3]; mice, prodrugs): 60.0 mg/kg
- SI ([3]; prodrugs): 3.3
- TI ([3]; prodrugs): 4.2
- MTD [6]: 30 mg/kg
- LD50 [6]: 61.4 mg/kg
- ED50 [7]: 12.5 to 15 mg/kg
- Anesthesia induction time [7]: 92.8 s
- Anesthesia maintenance time [7]: 1946.3 s
